Measured values published in patent publication US12162893B2 (Erasca, Inc., priority 2020, dated 2024).

Target: T1, mutant G12C K-RAS (Homo sapiens, UniProt P01116, G12C)
T1 construct: made in house; host or cells: E. coli BL21
Assay: covalent adduct formation (CAF) with mutant G12C K-RAS
Type: binding
Design: CAF: unit not given here
Conditions: for CAF: Table 3, Pyridone Core-Morpholine Unsubstituted; for % CAF @ 10 uM, 1 h: Table 5; for % CAF @ 10 μM,1 h: Table 6
Experimental: Embodiments disclosed herein are further illustrated by the following examples in Tables 1-4 and the Examples hereinbelow. The Tables indicate the compound number, structure, the observed mass spectral molecular weight peak, and covalent adduct formation (CAF) with a mutant G12C K-RAS after 60 minutes at a concentration of 10 micromolar.

[1] = after 60 minutes at 10 micromolar

CAF [1]	% CAF @ 10 μM,1 h [%]	SMILES	also measured
75.5	–	C=CC(=O)N1CCN(c2c(C#N)c(=O)n3c4c(c(-c5c(O)cccc5F)c(Cl)cc24)OCC3)[C@@H](C)C1 [Example 40, (R)-7-((S)-4-acryloyl-2-methylpiperazin-1-yl)-9-chloro-10-(2-fluoro-6-hydroxyphenyl)-5-oxo-3,5-dihydro-2H-[1,4]oxazino[2,3,4-ij]quinoline-6-carbonitrile]	–
22.3	–	C=CC(=O)N1C[C@H](C)N(c2c(C#N)c(=O)n3c4c(c(-c5c(O)cccc5F)c(Cl)cc24)OCC3)C[C@H]1C [Example 41, 7-((2S,5R)-4-acryloyl-2,5-dimethylpiperazin-1-yl)-9-chloro-10-(2-fluoro-6-hydroxyphenyl)-5-oxo-3,5-dihydro-2H-[1,4]oxazino[2,3,4-ij]quinoline-6-carbonitrile]	–
0	–	C=CC(=O)N1C[C@H](C)N(c2c(C#N)c(=O)n3c4c(c(-c5c(O)cccc5F)c(Cl)cc24)OCC3)C[C@H]1C [Example 42, (S)-7-((2S,5R)-4-acryloyl-2,5-dimethylpiperazin-1-yl)-9-chloro-10-(2-fluoro-6-hydroxyphenyl)-5-oxo-3,5-dihydro-2H-[1,4]oxazino[2,3,4-ij]quinoline-6-carbonitrile]	–
0	–	C=CC(=O)N1C[C@H](C)N(c2c(C#N)c(=O)n3c4c(c(-c5c(O)cccc5F)c(Cl)cc24)OCC3)C[C@H]1C [Example 43, (R)-7-((2S,5R)-4-acryloyl-2,5-dimethylpiperazin-1-yl)-9-chloro-10-(2-fluoro-6-hydroxyphenyl)-5-oxo-3,5-dihydro-2H-[1,4]oxazino[2,3,4-ij]quinoline-6-carbonitrile]	–
4.2	–	C=CC(=O)N1C[C@H](C)N(c2cc(=O)n3c4c(c(-c5ccc(F)cc5F)c(Cl)cc24)OCC3)C[C@H]1C [Example 44, 7-((2S,5R)-4-acryloyl-2,5-dimethylpiperazin-1-yl)-9-chloro-10-(2,4-difluorophenyl)-2H-[1,4]oxazino[2,3,4-ij]quinolin-5(3H)-one]	–
–	0	C=CC(=O)N1CCN(c2nc(=O)n3c4c(c(-c5c(O)cccc5F)c(Cl)cc24)OC[C@@H]3CN2CCOCC2)[C@@H](C)C1 [Example 195, (3S,10R)-7-((S)-4-acryloyl-2-methylpiperazin-1-yl)-9-chloro-10-(2-fluoro-6-hydroxyphenyl)-3-(morpholinomethyl)-2,3-dihydro-5H-[1,4]oxazino[2,3,4-ij]quinazolin-5-one]	–
–	97.6	C=CC(=O)N1CCN(c2nc(=O)n3c4c(c(-c5c(O)cccc5F)c(Cl)cc24)OC[C@@H]3CN2CCOCC2)[C@@H](C)C1 [Example 196, (3S,10S)-7-((S)-4-acryloyl-2-methylpiperazin-1-yl)-9-chloro-10-(2-fluoro-6-hydroxyphenyl)-3-(morpholinomethyl)-2,3-dihydro-5H-[1,4]oxazino[2,3,4-ij]quinazolin-5-one]	–
–	0	C=CC(=O)N1C[C@H](C)N(c2nc(=O)n3c4c(c(-c5ccccc5C(F)(F)F)c(Cl)cc24)OCC3)C[C@H]1C [Example 197, 7-((2S,5R)-4-acryloyl-2,5-dimethylpiperazin-1-yl)-9-chloro-10-(2-(trifluoromethyl)phenyl)-2,3-dihydro-5H-[1,4]oxazino[2,3,4-ij]quinazolin-5-one]	–
–	100	C=CC(=O)N1CCN(c2nc(=O)n3c4c(c(-c5c(O)cccc5F)c(Cl)cc24)OC[C@H]3CN2CCOCC2)[C@@H](C)C1 [Example 198, (3R,10S)-7-((S)-4-acryloyl-2-methylpiperazin-1-yl)-9-chloro-10-(2-fluoro-6-hydroxyphenyl)-3-(morpholinomethyl)-2,3-dihydro-5H-[1,4]oxazino[2,3,4-ij]quinazolin-5-one]	–
–	0	C=CC(=O)N1CCN(c2nc(=O)n3c4c(c(-c5c(O)cccc5F)c(Cl)cc24)OC[C@H]3CN2CCOCC2)[C@@H](C)C1 [Example 199, (3R,10R)-7-((S)-4-acryloyl-2-methylpiperazin-1-yl)-9-chloro-10-(2-fluoro-6-hydroxyphenyl)-3-(morpholinomethyl)-2,3-dihydro-5H-[1,4]oxazino[2,3,4-ij]quinazolin-5-one]	–

Further lines, the molecule ahead of its results:

SMILES	CAF [1]	% CAF @ 10 μM,1 h [%]	also measured
C=CC(=O)N1CCN(c2cc(=O)n3c4c(c(-c5c(O)cccc5F)ccc24)CCC3)CC1 [Example 45, 1-(4-acryloylpiperazin-1-yl)-8-(2-fluoro-6-hydroxyphenyl)-6,7-dihydropyrido[3,2,1-ij]quinolin-3(5H)-one]	1	–	–
C=CC(=O)N1CCN(c2cc(=O)n3c4c(c(-c5c(C)ccc6[nH]ncc56)ccc24)CCC3)CC1 [Example 46, 1-(4-acryloylpiperazin-1-yl)-8-(5-methyl-1H-indazol-4-yl)-6,7-dihydropyrido[3,2,1-ij]quinolin-3(5H)-one]	12	–	–
C=CC(=O)N1CCN(c2cc(=O)n3c4c(c(-c5ccc(F)cc5F)ccc24)CCC3)CC1 [Example 47, 1-(4-acryloylpiperazin-1-yl)-8-(2,4-difluorophenyl)-6,7-dihydropyrido[3,2,1-ij]quinolin-3(5H)-one]	2	–	–
C=CC(=O)N1CCN(c2cc(=O)n3c4c(c(-c5c(C)ccc6[nH]nc(C)c56)ccc24)CCC3)CC1 [Example 48, 1-(4-acryloylpiperazin-1-yl)-8-(3,5-dimethyl-1H-indazol-4-yl)-6,7-dihydropyrido[3,2,1-ij]quinolin-3(5H)-one]	1	–	–
C=CC(=O)N1C[C@H](C)N(c2c(C#N)c(=O)n3c4c(c(-c5c(O)cccc5F)c(Cl)cc24)OC[C@@H]3CN(C)C)C[C@H]1C [Example 49, (3S)-7-((2S,5R)-4-acryloyl-2,5-dimethylpiperazin-1-yl)-9-chloro-3-((dimethylamino)methyl)-10-(2-fluoro-6-hydroxyphenyl)-5-oxo-3,5-dihydro-2H-[1,4]oxazino[2,3,4-ij]quinoline-6-carbonitrile]	–	–	% CAF (60 min) (Table 4, Pyridone Core-Morpholine Substituted, after 60 minutes at 10 micromolar): 0%
C=CC(=O)N1CCN(c2nc(=O)n3c4c(c(-c5ccc(F)cc5F)c(Cl)cc24)SC[C@H]3CN2CCN(CC(F)F)CC2)[C@@H](C)C1 [Example 70, (3R)-7-((S)-4-acryloyl-2-methylpiperazin-1-yl)-9-chloro-3-((4-(2,2-difluoroethyl)piperazin-1-yl)methyl)-10-(2,4-difluorophenyl)-2,3-dihydro-5H-[1,4]thiazino[2,3,4-ij]quinazolin-5-one]	–	–	% CAF @ 10 uM, 1 h: 94%
C=CC(=O)N1CCN(c2nc(=O)n3c4c(c(-c5ccc(F)cc5F)c(C(F)(F)F)cc24)SCC3)C2CS(=O)(=O)CC21 (stereo not shown) [Example 100, 7-(4-acryloyl-6,6-dioxidohexahydrothieno[3,4-b]pyrazin-1(2H)-yl)-10-(2,4-difluorophenyl)-9-(trifluoromethyl)-2,3-dihydro-5H-[1,4]thiazino[2,3,4-ij]quinazolin-5-one]	–	–	% CAF @ 10 uM, 1 h: 94%
C=CC(=O)N1CCN(c2nc(=O)n3c4c(c(-c5ccc(F)cc5F)c(Cl)cc24)SCC3)[C@H](CC#N)C1 [Example 117, 2-((2R)-4-acryloyl-1-(9-chloro-10-(2,4-difluorophenyl)-5-oxo-2,3-dihydro-5H-[1,4]thiazino[2,3,4-ij]quinazolin-7-yl)piperazin-2-yl)acetonitrile]	–	–	% CAF @ 10 uM, 1 h: 75.6%
C=CC(=O)N1C[C@H](C)N(c2nc(=O)n3c4c(c(-c5c(C)ccc6cnn(C)c56)ccc24)OCC3)C[C@H]1C [Example 194, 7-((2S,5R)-4-acryloyl-2,5-dimethylpiperazin-1-yl)-10-(1,6-dimethyl-1H-indazol-7-yl)-2,3-dihydro-5H-[1,4]oxazino[2,3,4-ij]quinazolin-5-one]	–	2.5	–
